Results from ChEMBL document CHEMBL3638468, “Amides of acetic and propionic acids” (2015).

Biological target: Neuronal acetylcholine receptor subunit alpha-7 (Rattus norvegicus, UniProt Q05941)
Test: Binding Assay: Rat brain tissue (hippocampus or whole brain) is homogenized in homogenization buffer (10% w/v). [0.32 M sucrose, 1 mM EDTA; 0.1 mM phenylmethylsulfonyl fluoride (PMSF), 0.01% (w/v) NaN3, pH 7.4, 4 C.] at 600 rpm in a glass homogenizer. The homogenate is centrifuged (1000xg, 4 C., 10 min) and the supernatant is removed. The pellet is resuspended (20% w/v) and the suspension is centrifuged (1000xg, 4 C., 10 mM). The two supernatants are combined and centrifuged (15 000xg, 4 C., 30 min). The pellet obtained in this way is referred to as the P2 fraction.The P2 pellet is washed twice with binding buffer (50 mM Tris-HCl, 1 mM MgCl2, 120 mM NaCl, 5 mM KCl, 2 mM CaCl2, pH 7.4), and centrifuged (15 000xg, 4 C., 30 min).The P2 membranes are resuspended in binding buffer and incubated in a volume of 250 ul (amount of membrane protein 0.1-0.5 mg) in the presence of 1-5 nM [3H]methyllycaconitine, 0.1% (w/v) BSA (bovine serum albumin) and various concentrations of the test substance.
Assay type: tissue-based

Neuronal acetylcholine receptor subunit alpha-7, sequence (Q05941 whole entry): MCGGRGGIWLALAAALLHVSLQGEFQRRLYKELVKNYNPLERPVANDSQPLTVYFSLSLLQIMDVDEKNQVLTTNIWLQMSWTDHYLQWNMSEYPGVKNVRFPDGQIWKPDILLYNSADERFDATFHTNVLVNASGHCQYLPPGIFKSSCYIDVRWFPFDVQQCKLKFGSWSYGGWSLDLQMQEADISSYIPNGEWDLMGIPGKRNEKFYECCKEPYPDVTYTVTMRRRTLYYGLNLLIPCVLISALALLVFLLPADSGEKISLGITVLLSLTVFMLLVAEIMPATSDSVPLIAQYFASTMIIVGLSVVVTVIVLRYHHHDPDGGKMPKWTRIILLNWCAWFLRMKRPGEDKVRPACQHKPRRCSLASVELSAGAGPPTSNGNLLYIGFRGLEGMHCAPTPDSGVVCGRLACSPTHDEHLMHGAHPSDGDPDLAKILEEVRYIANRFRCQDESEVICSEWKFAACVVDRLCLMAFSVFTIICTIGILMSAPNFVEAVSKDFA

**Q.** `O=C(CC1CN2CCC1CC2)Nc1cc2ccc(Br)cc2s1` (stereo unspecified) was tested. Which Ki did it give?
**A.** Its Ki is 200 nM.
